Converted amounts (≈) assume the structure as drawn. Bounds are passed on as bounds.

The subject of data set [1] is Enterococcus faecalis. Nature of the data set: In vitro antibacterial activity against Enterococcus faecalis. It counts as functional.
Data set [2] has as its system Mus musculus. The experiment in a line: In vivo efficacy (sc) tested for protection against staphylococcus infections in mice; 0.3-2.8. It counts as functional. To be noted: read-out: PD50.
Data set [3] has as its system Streptococcus pneumoniae. The experiment in a line: In vitro antibacterial activity against Streptococcus pneumoniae. It counts as functional.
Data set [4] has as its system Staphylococcus aureus. Nature of the data set: In vitro antibacterial activity against […]; 0.0070-0.03. The class given is functional.
Data set [5] relates to Mus musculus. Nature of the data set: In vivo efficacy (sc) tested for protection against staphylococcus infections in mice; 1.1-3.3. The class given is functional. The settings on record: read-out: PD50.
The subject of data set [6] is Staphylococcus aureus. The experiment in a line: In vitro antibacterial activity against Staphylococcus aureus. The class given is functional.
A short description of data set [7]: Aqueous solubility at neutral pH. It counts as physicochemical.
Data set [8] has as its system Enterococcus faecalis. Nature of the data set: In vitro antibacterial activity against Enterococcus faecalis; 0.06-0.125. The class given is functional.
For data set [9], the system named is Staphylococcus aureus. Nature of the data set: In vitro antibacterial activity against […]; 0.125-0.25. The class given is functional.
Data set [10] concerns Staphylococcus aureus. The experiment in a line: In vivo efficacy;(sc) tested for protection against staphylococcus infections in mice. It counts as functional. The settings on record: read-out: PD50.
Data set [11] relates to Streptococcus pneumoniae. The experiment in a line: In vitro antibacterial activity against Streptococcus pneumoniae; 0.003-0.015. The class given is functional.
Data set [12] deals with Streptococcus pneumoniae. The experiment in a line: In vitro antibacterial activity against Streptococcus pneumoniae; […]. The class given is functional.
Data set [13] relates to Staphylococcus aureus. The experiment in a line: In vitro antibacterial activity against […]; 0.003-0.007. The class given is functional.

In the case of `C=C(NC(=O)c1csc(-c2nc3c(cc2O)-c2nc(cs2)C(=O)N[C@@H]([C@@H](C)O)C(=O)N/C(=C(\C)OC)c2nc(cs2)C(=O)N[C@@H]2c4nc(cs4)C(=O)N[C@@H](COC(=O)c4c5c6c(cccc6n4O)COC(=O)[C@@H](O[C@H]4C[C@](C)(O)[C@H](N(C)C)[C@H](C)O4)[C@H]2OC5)c2nc-3cs2)n1)C(N)=O` [MJ347-81F4 A], the minimal inhibitory concentration (MIC) against Enterococcus faecalis [1] was 0.03 µg/mL (≈ 0.0209 µM); against Streptococcus pneumoniae [3], 0.002 µg/mL (≈ 0.00139 µM); against Staphylococcus aureus [4], below 0.03 µg/mL. Besides, the ED50 with Mus musculus [2] was below 2.8 mg/kg.
Regarding `CN[C@H](CC(C)C)C(=O)N[C@H]1C(=O)N[C@@H](CC(N)=O)C(=O)N[C@H]2C(=O)N[C@H]3C(=O)N[C@H](C(=O)N[C@H](C(=O)O)c4cc(O)cc(O)c4-c4cc3ccc4O)[C@H](O)c3ccc(c(Cl)c3)Oc3cc2cc(c3O[C@@H]2O[C@H](CO)[C@@H](O)[C@H](O)[C@H]2O[C@H]2C[C@](C)(N)[C@H](O)[C@H](C)O2)Oc2ccc(cc2Cl)[C@H]1O` [VANCOMYCIN], the MIC in the data set with Enterococcus faecalis [1] is below 0.5 µg/mL; with Staphylococcus aureus [6] it was 0.2 µg/mL (≈ 0.138 µM). Besides, the ED50 with Mus musculus [5] was below 3.3 mg/kg.
For the compound `C=C(NC(=O)c1csc(-c2nc3c(cc2OCCCS(=O)(=O)O)-c2nc(cs2)C(=O)N[C@@H]([C@@H](C)O)C(=O)N/C(=C(\C)OC)c2nc(cs2)C(=O)N[C@@H]2c4nc(cs4)C(=O)N[C@@H](COC(=O)c4c5c6c(cccc6n4OCCCS(=O)(=O)O)COC(=O)[C@@H](O[C@H]4C[C@](C)(O)[C@H](N(C)C)[C@H](C)O4)[C@H]2OC5)c2nc-3cs2)n1)C(N)=O`, the results for the MIC in the data set on Enterococcus faecalis [1], with Streptococcus pneumoniae [3] and against Staphylococcus aureus [6] were 128 µg/mL (≈ 76.1 µM), 0.5 µg/mL (≈ 0.297 µM) and above 128 µg/mL, respectively. The same compound had a solubility in data set [7] above 2000 µg/mL.
For the compound `C=C(NC(=O)c1csc(-c2nc3c(cc2O)-c2nc(cs2)C(=O)N[C@@H]([C@@H](C)O)C(=O)N/C(=C(\C)OC)c2nc(cs2)C(=O)N[C@@H]2c4nc(cs4)C(=O)N[C@@H](COC(=O)c4c5c6c(cccc6n4OCCN4CCOCC4)COC(=O)[C@@H](O[C@H]4C[C@](C)(O)[C@H](N(C)C)[C@H](C)O4)[C@H]2OC5)c2nc-3cs2)n1)C(N)=O`, the results for the MIC in the data set on Enterococcus faecalis [8], against Staphylococcus aureus [9] and with Streptococcus pneumoniae [11] were below 0.125 µg/mL, below 0.25 µg/mL and below 0.015 µg/mL, respectively. Further, the ED50 in the data set with Staphylococcus aureus [10] stood at 3.4 mg/kg.
In the case of `C=C(NC(=O)c1csc(-c2nc3c(cc2OCOP(=O)(O)O)-c2nc(cs2)C(=O)N[C@@H]([C@@H](C)O)C(=O)N/C(=C(\C)OC)c2nc(cs2)C(=O)N[C@@H]2c4nc(cs4)C(=O)N[C@@H](COC(=O)c4c5c6c(cccc6n4OCOP(=O)(O)O)COC(=O)[C@@H](O[C@H]4C[C@](C)(O)[C@H](N(C)C)[C@H](C)O4)[C@H]2OC5)c2nc-3cs2)n1)C(N)=O`, the minimal inhibitory concentration (MIC) in the data set on Enterococcus faecalis [1] is 0.25 µg/mL (≈ 0.151 µM); in the data set with Streptococcus pneumoniae [3] it was 0.015 µg/mL (≈ 0.00905 µM); with Staphylococcus aureus [6], 0.125 µg/mL (≈ 0.0754 µM). The compound also came in with a solubility in [7] above 2000 µg/mL. Moreover, the ED50 in the data set on Staphylococcus aureus [10] amounted to 0.15 mg/kg.
On to `C=C(NC(=O)c1csc(-c2nc3c(cc2O)-c2nc(cs2)C(=O)N[C@@H]([C@@H](C)O)C(=O)N/C(=C(\C)OC)c2nc(cs2)C(=O)N[C@@H]2c4nc(cs4)C(=O)N[C@@H](COC(=O)c4c5c6c(cccc6n4OCCCS(=O)(=O)O)COC(=O)[C@@H](O[C@H]4C[C@](C)(O)[C@H](N(C)C)[C@H](C)O4)[C@H]2OC5)c2nc-3cs2)n1)C(N)=O`, for which the MIC came out at 0.125 µg/mL (≈ 0.0801 µM) against Enterococcus faecalis [1], 0.007 µg/mL (≈ 0.00449 µM) with Streptococcus pneumoniae [3] and 0.125 µg/mL (≈ 0.0801 µM) in the data set with Staphylococcus aureus [6]. The same compound returned a solubility in data set [7] above 2000 µg/mL. Also, the ED50 with Staphylococcus aureus [10] worked out at 4 mg/kg.
Consider `C=C(NC(=O)c1csc(-c2nc3c(cc2O)-c2nc(cs2)C(=O)N[C@@H]([C@@H](C)O)C(=O)N/C(=C(\C)OC)c2nc(cs2)C(=O)N[C@@H]2c4nc(cs4)C(=O)N[C@@H](COC(=O)c4c5c6c(cccc6n4OCCC(=O)O)COC(=O)[C@@H](O[C@H]4C[C@](C)(O)[C@H](N(C)C)[C@H](C)O4)[C@H]2OC5)c2nc-3cs2)n1)C(N)=O`, for which the minimal inhibitory concentration (MIC) against Enterococcus faecalis [1] was 0.25 µg/mL (≈ 0.166 µM); against Streptococcus pneumoniae [3] it was 0.03 µg/mL (≈ 0.0199 µM); against Staphylococcus aureus [6], 0.125 µg/mL (≈ 0.0828 µM). In data set [7], this compound gave a solubility of around 70 µg/mL (≈ 46.4 µM). The ED50 in the data set with Staphylococcus aureus [10] came out at 10 mg/kg.
In the case of `C=C(NC(=O)c1csc(-c2nc3c(cc2O)-c2nc(cs2)C(=O)N[C@@H]([C@@H](C)O)C(=O)N/C(=C(\C)OC)c2nc(cs2)C(=O)N[C@@H]2c4nc(cs4)C(=O)N[C@@H](COC(=O)c4c5c6c(cccc6n4OCOP(=O)(OC(C)(C)C)OC(C)(C)C)COC(=O)[C@@H](O[C@H]4C[C@](C)(O)[C@H](N(C)C)[C@H](C)O4)[C@H]2OC5)c2nc-3cs2)n1)C(N)=O`, the MIC in the data set with Enterococcus faecalis [1] stood at 0.015 µg/mL (≈ 0.00904 µM); against Streptococcus pneumoniae [3] it was 0.015 µg/mL (≈ 0.00904 µM); with Staphylococcus aureus [6], 0.125 µg/mL (≈ 0.0753 µM). In [7], this compound gave a solubility above 2000 µg/mL. The ED50 in the data set with Staphylococcus aureus [10] was determined as 3 mg/kg.
With `C=C(NC(=O)c1csc(-c2nc3c(cc2OC)-c2nc(cs2)C(=O)N[C@@H]([C@@H](C)O)C(=O)N/C(=C(\C)OC)c2nc(cs2)C(=O)N[C@@H]2c4nc(cs4)C(=O)N[C@@H](COC(=O)c4c5c6c(cccc6n4OC)COC(=O)[C@@H](O[C@H]4C[C@](C)(O)[C@H](N(C)C)[C@H](C)O4)[C@H]2OC5)c2nc-3cs2)n1)C(N)=O`, the minimal inhibitory concentration (MIC) was below 0.001 µg/mL with Streptococcus pneumoniae [12], 0.015 µg/mL (≈ 0.0102 µM) against Enterococcus faecalis [1] and below 0.007 µg/mL in the data set with Staphylococcus aureus [13]. The ED50 in the data set on Staphylococcus aureus [10] was 3.7 mg/kg.

In general, MIC refers to the lowest concentration found to suppress growth. Read a high MIC as a less susceptible organism. As a reminder, the solubility is the concentration that dissolves in the medium under given conditions. A higher solubility goes with a readily soluble substance.

These data come from ChEMBL document CHEMBL1146687, “Novel semi-synthetic nocathiacin antibiotics: synthesis and antibacterial activity of bis- and mono-O-alkylated derivatives” (Bioorg Med Chem Lett, 2004).
